Source: US11219614B2, “Combination cancer therapy with pentaaza macrocyclic ring complex and ascorbate compound” (Galera Labs, LLC, priority 2016, dated 2022)

Columns and labels:
Lung cancer cells (H292) = test: clonogenic cell survival assay, H292; assay type: cell-based; settings: ascorbate 1 h in combination with 5, 10 or 20 μM GC4419 24 h; compared to monotherapies; FIG. 2
Experimental: FIG. 2 is a plot showing the surviving fraction of H292 cells for increasing amounts of ascorbate, as determined by a clonogenic cell survival assay to used determine the effects of the compound alone and in combination with a pentaaza macrocyclic ring complex (GC4419). Lung cancer cells (H292) were exponentially grown in culture for 48 hours. The cells were then treated with 5-20 μM GC4419 for 24 hours, and ascorbate (Asc) for one hour, followed immediately by clonogenic assay. The cells were trypsinized, counted, replated at varying lower densities and incubated. Plates were stained and counted for clonogenic survival assays.
The effect of ascorbate was tested in a clonogenic cell survival assay to determine the effects of the compound alone and in combination with a pentaaza macrocyclic ring complex (GC4419). Lung cancer cells (H292) were exponentially grown in culture for 48 hours. The cells were then treated with 5-20 μM GC4419 for 24 hours, and ascorbate (Asc) for one hour followed by immediate clonogenic assay. The cells were trypsinized, counted, replated at varying lower densities and incubated. Plates were stained and counted for clonogenic survival assays.

[1] = system: tongue carcinoma cells (Cal27); test: clonogenic cell survival assay, Cal27; assay type: cell-based, Human
Experimental: FIG. 4 is a plot showing the surviving fraction of Cal27 cells for increasing amounts of ascorbate, as determined by a clonogenic cell survival assay used to determine the effects of the compound alone and in combination with a pentaaza macrocyclic ring complex (GC4419). Human tongue carcinoma cells (Cal27) were exponentially grown in culture for 48 hours. The cells were then treated with 5-20 μM GC4419 for 24 hours, and ascorbate (Asc) for one hour, followed by immediate clonogenic assay. The cells were trypsinized, counted, replated at varying lower densities and incubated.
(§1) FIG. 6 is a graph showing the surviving fraction of Cal 27 cells treated with ascorbate and combinations with including ascorbate. The effects of ascorbic acid (AA) in combination with a pentaaza macrocyclic ring complex (GC4419) was tested in a clonogenic cell survival assay to determine the effects of the combination alone and when paired with ionizing radiation. Human tongue carcinoma cells (Cal27) were exponentially grown in culture for 48 hours. The cells were then treated with 5 μM GC4419 for 3 hours and 10 pmol/cell ascorbate for 1 hour, either alone, in combination (GC+AA), and/or paired with a dose of ionizing radiation (2 Gy). After the ionizing radiation dose, the cells were trypsinized, counted, replated at varying lower densities and incubated. Plates were stained and counted for clonogenic survival assays.
The effect of ascorbate was tested in a clonogenic cell survival assay to determine the effects of the compound alone and in combination with a pentaaza macrocyclic ring complex (GC4419). Human tongue carcinoma cells (Cal27) were exponentially grown in culture for 48 hours. The cells were then treated with 5-20 μM GC4419 for 24 hours, and ascorbate (Asc) for one hour, followed by immediate clonogenic assay. The cells were trypsinized, counted, replated at varying lower densities and incubated. Plates were stained and counted for clonogenic survival assays.
as §1, with “The” for “FIG. 6 is a graph showing the surviving fraction of Cal 27 cells treated with ascorbate and combinations with including ascorbate. The”

[2] = system: Normal human fibroblasts (NHFs); test: surviving fraction of normal human fibroblasts; assay type: cell-based; settings: 5 μM GC4419 24 h followed by 10 pmol/cell ascorbate 1 h; FIG. 9
Experimental: FIG. 9 is a graph showing the normalized surviving fraction of normal human fibroblasts (NHFs) treated with GC4419, ascorbate, and a combination of GC4419 and ascorbate. Normal human fibroblasts (NHFs) were plated and grown in culture (low FBS media) for 48 hours. The NHFs were then treated with 5 μM GC4419 for 24 hours followed by treatment with 10 pmol/cell ascorbate for 1 hour.
Normal human fibroblasts (NHFs) were plated and grown in culture (low FBS media) for 48 hours. The NHFs were then treated with 5 μM GC4419 for 24 hours followed by treatment with 10 pmol/cell ascorbate for 1 hour.

[Cl][Mn][Cl].c1cc2nc(c1)CN[C@H]1CCCC[C@@H]1NCCN[C@H]1CCCC[C@@H]1NC2 [GC4419]
cell killing (clonogenic survival) (Lung cancer cells (H292)): significant enhancements in cell killing | synergistic activity of the combination ([1]; 5 μM GC4419 3 h + 10 pmol/cell ascorbate 1 h (GC+AA), FIG. 6): more than merely an additive effect | cell killing (clonogenic survival) ([1]; 5 μM GC4419 3 h + 10 pmol/cell ascorbate 1 h (GC+AA), compared to control and to either alone, FIG. 6): significant enhancements in cell killing | sensitization to ionizing radiation ([1]; GC+AA+IR (2 Gy) compared to IR 2Gy alone, FIG. 6): sensitized the cancer cells to radiation | cell killing (clonogenic survival) ([1]; ascorbate 1 h in combination with 5, 10 or 20 μM GC4419 24 h, compared to monotherapies, FIG. 4): significant enhancements in cell killing | cytotoxicity to normal cells [2]: does not increase cytotoxicity of ascorbate
